{
  "source": "patent US20040019066A1",
  "about": "“Methionine salvage pathway in bacillus” (priority 2002, published 2004)",
  "key": {"[1]": {"test_system": "B. subtilis 168 and mtn region mutants", "assay": "Growth on MTR as sole sulfur source (ED1 minimal medium plates)", "format": "cell-based, Bacillus subtilis", "method": "Panel A: ED1 minimal mediums plate with 1 mM IPTG containing 0.2 mM MTR as sole sulfur source WT, metI (BSIP 1143), mtnS (BSHP7010), mtnK (BFS1850), mtnU (BFS1851), mtnV (BSHP7020), mtnW (BSHP7014), mtnX (BFS1852), mtnY (BSHP7016) and mtnZ (BFS 1853) were inoculated for over-night growth at 37° C. No growth of mtnS, mtnK, mtnW and mtnY is represented by an example of absence of growth around a disc with MTR of mtnY mutant in panel B. Normal growth of […] and mtnX is represented by an example of normal growth around a disc with MTR of mtnV mutant in panel C.\nUsing the collection of mutants constructed during the Bacillus subtilis functional analysis, program (http://locus.jouy.inra.fr/cgi-bin/genmic/madbase/progs/madbase.oper] and http://bacillus.genome.adjp, [9]) and constructing mutants which were not available in the collection, we tested all genes in the region for their phenotype of growth on MTR as the sole sulfur source.\nBacterial strains and plasmids, and growth media: E. coli and B. subtilis strains as well as plasmids used in this work are listed in Table 3. E. coli TG1 and XL1-Blue were used for cloning experiments (TG1 for single cross-over recombination and XL1-Blue for double cross-over recombination). Despite the fact that there are no public regulations yet in this domain in China, all experiments were performed in accordance with the European regulation requirements concerning the contained use of Genetically Modified Organisms of Group-I (French agreement N^o 2735). E. coli and B. subtilis were grown in Luria-Bertani (LB) medium and in ED minimal medium: K2HPO4, 8 mM; KH2PO4, 4,4 mM; glucose, 27 mM; Na3-citrate, 0.3 mM; L-glutamine, 15 mM; L-tryptophan, 0.244 mM; ferric citrate, 33.5 μM; MgSO4, 2 mM; MgCl2, 0.61 mM; CaCl2, 49.5 μM; FeCl3, 49.9 μM; MnCl2, 5.05 μM; ZnCl2, 12.4 μM; CuCl2, 2.52 μM; CoCl2, 2.5 μM; Na2MoO4, 2.48 μM. When methionine was used as sulfur source (1 mM), MgSO4 was replaced by MgCl2 at the same magnesium concentration (2 mM). For assaying growth on plates, either the MgSO4 containing medium or the sulfur-free basal medium was used (MgSO4 was replaced by MgCl2 as described above). In the latter case, 10 [μl of the sulfur source under investigation was applicated onto paper discs (MTR, 200 mM stock solution and methionine, 100 mM stock solution) deposited at the center of the plate, after bacteria had been uniformly spread at the surface of the plate, and growth was measured around the disK. In some cases MTR was used directly in the plate as sulfur source (0.2 mM). When necessary IPTG was included at 1 mM concentration. When xylose was added to the medium (0.5%) in order to trigger the expression of genes under the control of Pxyl inducible promoter, fructose was used as carbon source instead of glucose. LB and ED plates were prepared by addition of 17 g/liter Bacto agar or Agar Noble (Difco), respectively, to the medium. When included, antibiotics were added to the following concentrations: ampicillin, 100 mg/liter; chloramphenicol, 50 mg/liter; spectinomycin, 100 mg/liter; erythromycin plus lincomycin, 1 mg/liter and 25 mg/liter. Bacteria were grown at 37° C. The optical density (OD) of bacterial cultures was measured at 600 nm. MTR was prepared from MTA (Sigma, D5011) by acid hydrolysis as described by Schlenk. 3-fluoromethythiorybose (3F-MM, 5-thio-5-5-S-trifluoromethyl-D-ribose) was synthesised accordingly to [6, 20]. When added directly to the ED1 medium plate, 3F-MTR was used at 100 mg/liter concentration and when applicated onto paper discs 100 mM stock solution was used. For anaerobic growth on plates, the Anaerocult A (Merck) within an anaerobiosis jar for CO2 production with simultanious O2 absorbtion was used. Sulfur-free ED1 minimal medium plates were supplemented to 1% glucose final concentration and with 0.5% sodium pyruvate and 20 mM sodium nitrate as electron acceptor. Plates were incubated at 37° C. for 4 days with the sulfur source under investigation."}, "[2]": {"test_system": "B. subtilis 168 and mtn region mutants", "details": "Bacillus subtilis; reference [5]; cited from earlier work"}},
  "note": "“Also recorded” adds a separate entry of the source.",
  "data": [
    {"compound": "CSC[C@@H](O)[C@@H](O)[C@@H](O)C=O", "note": "[MTR, methylthioribose]", "values": [
      {"measurement": "Growth on MTR as sole sulfur source", "setting": "[1]; Wild type strain 168, + O2, four days", "value": "normal growth after four days"},
      {"measurement": "Growth on MTR as sole sulfur source", "setting": "[1]; Wild type strain 168, anaerobic growth, nitrate as electron acceptor, four days (table row printed '+ O2')", "value": "failed to grow; also recorded: no growth after four days"},
      {"measurement": "Use of MTR as the methionine source", "setting": "[1]; methionine auxotrophs", "value": "can be used as the methionine source"},
      {"measurement": "Growth on MTR as sole sulfur source", "setting": "[1]; mtnK mutant, strain BFS1850", "value": "no growth; also recorded: failed to grow"},
      {"measurement": "Growth on MTR as sole sulfur source", "setting": "[1]; mtnS mutant, strain BSHP7010", "value": "no growth; also recorded: failed to grow"},
      {"measurement": "Growth on MTR as sole sulfur source", "setting": "[1]; mtnU mutant, strain BFS1851", "value": "failed to grow; also recorded: no growth (numerous revertants)"},
      {"measurement": "Growth on MTR as sole sulfur source", "setting": "[1]; mtnV mutant, strain BSHP7020", "value": "normal growth; also recorded: no visible effect on growth"},
      {"measurement": "Growth on MTR", "setting": "[1]; mtnW inactivated with a polar effect on the distal genes", "value": "lack of growth"},
      {"measurement": "Growth on MTR as sole sulfur source", "setting": "[1]; mtnW mutant, strain BSHP7014 (downstream genes expressed)", "value": "no growth; also recorded: failed to grow"},
      {"measurement": "Growth on MTR as sole sulfur source", "setting": "[1]; mtnX mutant, strain BFS1852, IPTG added", "value": "normal growth; also recorded: recovered its growth properties"},
      {"measurement": "Growth on MTR as sole sulfur source", "setting": "[1]; mtnY mutant, strain BSHP7016", "value": "no growth; also recorded: failed to grow"},
      {"measurement": "Growth on MTR as sole sulfur source", "setting": "[1]; mtnZ mutant, strain BFS1853", "value": "partial growth; also recorded: very weak (residual) growth; also recorded: very weak, residual growth; also recorded: weak residual growth"},
      {"measurement": "MTR as sulfur source", "setting": "[2]", "value": "excellent sulfur source"}
    ]}
  ]
}
